Tested on: EGFR-positive A431 cells
Assay: cell uptake / internalization studies on A431 cells
Type: cell-based, human
Conditions: 1 h incubation
Experimental: The cellular uptake was differentiated by membrane-bound and internalized activity. In these experiments, no EGFR-specific interaction of any of the radiolabeled agents [^68Ga]Ga-1–[^68Ga]Ga-11 was observed (Figure 5).
Internalization studies of [^68Ga]Ga-1–[^68Ga]Ga-11 on A431 cells. For this purpose, the A431 cells (10^6 per well) were seeded into 24-well cell culture multiwell plates (cellstar) and incubated for 2 days at 37 °C in a humidified CO2 (5%) atmosphere. Directly before the experiment, each well was washed twice with fresh internalization medium (PBS/DMEM, high glucose, 1/99, v/v), followed by the addition of internalization medium to a final volume of 1.35 mL per well. […] Afterwards, the medium was separated from the cells and each well was washed twice with 1 mL of ice-cold internalization medium, the washing solutions were added to the collected internalization medium and measured in a γ-counter (these combined solutions contain the unbound fraction). To determine the surface-bound fraction, each well was further incubated twice for 5 min with ice-cold glycine-buffer (pH 2.8, 0.05 M, 1 mL) and the supernatants were collected and measured. The internalized fraction was determined by lysing the cells twice for 5 min with sodium hydroxide solution (2 M, 1 mL), collection and measurement of the combined solutions. […]

## [^125I]I-hEGF: ^125I-labeled hEGF from PerkinElmer, reference compound in cell uptake and competitor in displacement assays
Blocking with 100-fold excess hEGF
  activity, internalized + bound to membrane, blocked (overall cellular uptake under blocking): 1.9%
non-blocking conditions
  activity, internalized + bound to membrane, unblocked (overall cellular uptake): 33.6%

Reference: paper PMC9963887, “Towards Radiolabeled EGFR-Specific Peptides: Alternatives to GE11” (Pharmaceuticals, 2023)
